Counter-ions that a name gives are not always drawn.
How the values were obtained:
[1] = system: PC3 (prostate) tumor cell line; assay: time-dependence of binding of tracer (38) to tumor cell lines; assay type: cell-based; conditions: 30 min incubation with 0.25 MBq
Procedure: In a second experiment, the time-dependence of binding of (5R)-[^18F]-fluoromethyl-L-ornithine to several tumor cell lines was determined using A549, H460 as well as PC3 (prostate) and DU145 (prostate) tumor cell lines. After 30 min incubation with 0.25 MBq up to 5% (PC3 cells) of applied dose were bound to the cells (FIG. 2).
FIG. 2: Binding of (5R)-[^18F]-fluoromethyl-L-ornithine (38) to several tumor cell lines. (A549, H460 (both human NSCLC) as well as PC3 and DU145 (both prostate) tumor cell lines were used and incubated with 0.25 MBq (5R)-[^18F]-fluoromethyl-L-ornithine for up to 30 min. The cell-bound fraction of activity was determined after 10 min, 20 min and 30 min.

[2] = system: H460 (human NSCLC) tumor cells; assay: cell competition experiment, uptake of tracer (38) against excess L-ornithine; assay type: cell-based; conditions: 30 min incubation, 0.25 MBq tracer in PBS, L-ornithine 1 mM
Procedure: (§1) To determine the specificity of (5R)-[^18F]-fluoromethyl-L-ornithine (38), the fluorinated compound was used as tracer in a cell competition experiment in A549 (human NSCLC) as well as H460 (human NSCLC) tumor cells using an excess of L-ornithine (1 mM) for competition.
(§2) FIG. 1: Examination of biological activity of (5R)-[^18F]-fluoromethyl-L-ornithine (38) from in a cell-competition-experiment. (NCI-H460 and A549 cells, 30 min incubation with 0.25 MBq (5R)-[^18F]-fluoromethyl-L-ornithine in PBS-Puffer, concentration of L-ornithine 1 mM).

[3] = system: A549 (human NSCLC) tumor cells; assay: as above; assay type: cell-based; conditions: 30 min incubation, 0.25 MBq tracer in PBS, L-ornithine 1 mM
Procedure: as §1, §2

[4] = system: NCI-H460 (human NSCLC) tumor bearing rats; assay: PET-Imaging in tumor bearing rats; assay type: in vivo, rat
Procedure: (§3) Animal experiments. (4S)-[^18F]-fluoro-L-ornithine was examined in NCI-H460 (human NSCLC) tumor bearing rats using PET-Imaging. PET images were obtained from 45 min after administration of the radiotracer (7.16 MBq) for 30 min. […] After the PET-imaging study (98 min p.i.) the rat was sacrificed, several organs were removed and the amount of radioactivity in tissues was measured.
FIG. 7: PET-Imaging of (4S)-[^18F]-fluoro-L-ornithine (29) in H460 tumor bearing rats. 7.16 MBq of radioactive tracer was injected i.v. into rats. PET images were obtained using the Inveon PET/CT scanner from 45 min p.i. for 30 min.

A549 tumor cells [5] = assay: cell competition experiment, uptake of tracer (29) against excess L-ornithine; assay type: cell-based, human; conditions: 0.25 MBq tracer, 1 mM L-ornithine, incubation 30 min
Procedure: (§4) To determine the specificity of (4S)-[^18F]-fluoro-L-ornithine (29), the fluorinated compound was used as tracer in a cell competition experiment in A549 as well as PC3 tumor cells against an excess of L-Ornithine (1 mM).
(§5) FIG. 4: The specificity of (4S)-[^18F]-fluoro-L-ornithine (29) for uptake into tumor cells was determined in cell competition experiments using A549 as well as PC3 tumor cells. (0.25 MBq of (4S)-[^18F]-fluoro-L-ornithine was used as tracer, an excess of 1 mM L-ornithine was used for saturation of uptake systems, incubation time 30 min).

PC3 cells = assay: time dependence of uptake of tracer (29), cell-bound fraction; assay type: cell-based; conditions: 0.25 MBq, 60 min incubation
Procedure: (§6) In a second experiment, A549 and PC3 cells were incubated with (4S)-[^18F]-fluoro-L-ornithine for up to 60 min and the cell-bound fraction was determined. Approximately 5% of applied dose was taken up by the cells during the 60 min incubation period (FIG. 5).
(§7) FIG. 5: The time dependence of uptake of (4S)-[^18F]-fluoro-L-ornithine(29) was determined. (A549 and PC3 cells were incubated with 0.25 MBq (4S)-[^18F]-fluoro-L-ornithine for up to 60 min and the cell-bound fraction was determined after 10, 20, 30 and 60 min)

PC3 tumor cells = assay: cell competition experiment, uptake of tracer (29) against excess L-ornithine; assay type: cell-based; conditions: 0.25 MBq tracer, 1 mM L-ornithine, incubation 30 min
Procedure: as §4, §5

A549 cells [6] = assay: time dependence of uptake of tracer (29), cell-bound fraction; assay type: cell-based, human; conditions: 0.25 MBq, 60 min incubation
Procedure: as §6, §7

[7] = system: NCI-H460 (human NSCLC) tumor bearing rats; assay: radioactivity in removed organs after the PET-imaging study (biodistribution); assay type: in vivo, rat; conditions: 98 min p.i.
Procedure: as §3

A549 tumor cells [8] = assay: retention of activity in tumor cells under efflux conditions; assay type: cell-based, human; conditions: A549 cells loaded 30 min with 0.25 MBq, then 30 min in new buffer (efflux conditions)
Procedure: In a third experiment, the retention of activity in tumor cells was examined. A549 cells were incubated with (4S)-[^18F]-fluoro-L-ornithine for 30 min. After this time, cells were incubated with new buffer (without radiotracer) for up to 30 min. The release of radioactivity into the supernatant as well as the retention inside the cells was examined. It was discovered, that approximately 66% of activity were retained in the tumor cells after 30 min under efflux conditions (FIG. 6).
FIG. 6: Examination of retention of (4S)-[^18F]-fluoro-L-ornithine (29) in A549 tumor cells. A549 cells were loaded with 0.25 MBq (4S)-[^18F]-fluoro-L-ornithine for 30 min in PBS. After washing, the cells were incubated with new buffer (without activity) for additional 10, 20, 30 min. The release of radioactivity into the supernatant as well as the retention inside the cells was determined.

[9] = Welch et al. 1986; cited from earlier work
A549 cells [10] = assay: cell competition experiment using 14C-ornithine as tracer; assay type: cell-based, human; conditions: 0.1 μCi 14C-ornithine tracer, compound 1 mM, incubation 10 min
Procedure: (3R)-3-fluoro-L-ornithine-dihydrochloride (31) was used in a cell competition experiment using ^14C-ornithine as tracer.
FIG. 3: The specificity of (3R)-3-fluoro-L-ornithine-dihydrochloride (31) to compete for ^14C-Ornithine uptake was determined in a cell competition experiment in A549 cells. (0.1 μCi ^14C-Ornithine was used as tracer, (3R)-3-fluoro-L-ornithine-dihydrochloride was used at a concentration of 1 mM, incubation period 10 min).

[11] = PET from 45 min p.i. for 30 min, 7.16 MBq i.v., H460 tumor

**Q.** With `N[C@@H](C[18F])CC[C@H](N)C(=O)O` [Example 38, (5R)-[^18F]-fluoromethyl-L-ornithine] as the molecule, how does the “applied dose bound to the cells” value [1] read?
**A.** The value was “up to 5 % of applied dose”.

**Q.** And the “uptake of tracer blockable by excess of L-ornithine” value [2]?
**A.** Its value is “blockable by excess of L-ornithine”.

**Q.** What about the “uptake of tracer blockable by excess of L-ornithine” value [3] of the same molecule?
**A.** Its value is “blockable by excess of L-ornithine”.

**Q.** Which “injected dose per gram tumor by ROI analyses” value [4, 11] does the source give for `NC[C@@H]([18F])C[C@H](N)C(=O)O` [Example 29, (4S)-[^18F]-fluoro-L-ornithine] here?
**A.** Its value is “up to 2.2 % injected dose per gram”.

**Q.** And the “tumor visualization in PET images” value [4, 11]?
**A.** Its value is “very well visualized”.

**Q.** And the “defluorination in vivo, uptake of released [F18]-fluoride in the bones” value ([4]; later time points of PET study)?
**A.** Its value is “Some partial defluorination”.

**Q.** And the “uptake of tracer blockable by excess of ornithine” value (A549 tumor cells [5])?
**A.** The value was “blockable by excess of ornithine”.

**Q.** And the “applied dose taken up by the cells” value (PC3 cells)?
**A.** Its value is “Approximately 5 % of applied dose”.

**Q.** And the “uptake of tracer blockable by excess of ornithine” value (PC3 tumor cells)?
**A.** Its value is “blockable by excess of ornithine”.

**Q.** What about the “applied dose taken up by the cells” value (A549 cells [6]) of the same molecule?
**A.** Its value is “Approximately 5 % of applied dose”.

**Q.** What about the radioactivity in blood ([7]; blood) of the same molecule?
**A.** The radioactivity in blood was 0.38 % ID/g.

**Q.** And the radioactivity in bone ([7]; bone)?
**A.** Its radioactivity in bone is 2.08 % ID/g.

**Q.** And the radioactivity in brain ([7]; brain)?
**A.** The radioactivity in brain was 0.24 % ID/g.

**Q.** What about the radioactivity in heart ([7]; heart) of the same molecule?
**A.** Its radioactivity in heart is 0.44 % ID/g.

**Q.** What about the radioactivity in kidney ([7]; kidney) of the same molecule?
**A.** Its radioactivity in kidney is 1.18 % ID/g.

**Q.** And the radioactivity in liver ([7]; liver)?
**A.** The radioactivity in liver was 0.39 % ID/g.

**Q.** And the radioactivity in lung ([7]; lung)?
**A.** Its radioactivity in lung is 0.44 % ID/g.

**Q.** What about the radioactivity in pancreas ([7]; pancreas) of the same molecule?
**A.** The radioactivity in pancreas was 2.47 % ID/g.

**Q.** What about the radioactivity in tumor ([7]; tumor) of the same molecule?
**A.** The radioactivity in tumor was 1.43 % ID/g.

**Q.** And the “activity retained in the tumor cells” value (A549 tumor cells [8])?
**A.** Its value is “approximately 66%”.

**Q.** Which “in-vivo release of free [18F]fluoride” value [9] does the source give for [^18F]fluoro-putricine here?
**A.** The value was “relatively high in-vivo release of free [^18F]fluoride”.

**Q.** For `NCC[C@@H](F)[C@H](N)C(=O)O` [Example 31, (3R)-3-fluoro-L-ornithine-dihydrochloride], which “block of uptake of 14C-ornithine” value (A549 cells [10]) is on record?
**A.** The value was “can block uptake of ^14C-ornithine in A549 cells to a large extent”.

— US20110250137A1, “RADIOISOTOPE-LABELED LYSINE AND ORNITHINE DERIVATIVES, THEIR USE AND PROCESSES FOR THEIR PREPARATION” (priority 2008, published 2011)
